The numbers were not newly measured in patent US20100047273A1, “Coxsackie B virus and type 1 diabetes” (priority 2007, published 2010), which cites them from elsewhere.

In the data set the test system is coxsackie B4 virus. The following applies: reported in references 4 and 5.

As for `Cc1cc(CCCOc2c(C)cc(-c3noc(C(F)(F)F)n3)cc2C)on1` [pleconaril], the “activity against coxsackie B4 virus” value is reported as “active”.
